Data taken from PMC6443933, “Antagonizing Retinoic Acid-Related-Orphan Receptor Gamma Activity Blocks the T Helper 17/Interleukin-17 Pathway Leading to Attenuated Pro-inflammatory Human Keratinocyte and Skin Responses” (Frontiers in Immunology, 2019).

Legend:
[1] = test system: STAT3 phosphorylation in Ba/F3 cells stably expressing the human IL-21 receptor; test: IL-21-induced phospho-STAT3 by flow cytometry; type: cell-based; settings: 10 μM, 1 h pre-incubation, vs DMSO
Procedure: To assess whether Cpd A affected STAT3 activity we induced STAT3 phosphorylation in Ba/F3 cells stably expressing the human IL-21 receptor (kindly provided by Dr. Max Warncke, Novartis). Cells were pre-incubated for 1 h with 10 μM of Cpd A or with 1 μM of the pan-JAK inhibitor CP690550. To induce STAT3 activity, the cells were stimulated for 1.5 h with recombinant human IL-21 (3 nM), followed by two washing steps using buffer containing PBS/0.5% BSA. The cells were fixed with 2% paraformaldehyde for 15 min at room temperature, washed and resuspended in ice-cold 90% methanol solution and stored overnight at −20°C. The samples were washed and stained for 1 h with an Alexa 647-labeled anti-phospho (pY705)-STAT3 antibody (BD biosciences). After two washes the cells were analyzed using a LSR Fortessa (BD Bioscience) and analyzed using FlowJo software (Tree Star).

RORα = test system: T1, RORα; test: RORα LBD-GAL4 reporter gene assay in Jurkat cells; type: cell-based, human
T1 construct: RORα and RORβ we performed LBD-GAL4 reporter gene assays; expressed in transfected cells; host or cells: Jurkat cells stably carrying pGL4.35
Procedure: (§1) Selectivity against other ROR family members was assessed in a GAL4 reporter gene assay as previously described ([44]). Briefly, Jurkat cells stably expressing the pGL4.35 plasmid (Promega) containing nine GAL4 binding sites inducing the transcription of the luciferase reporter gene were transiently transfected with the human RORα, RORβ or RORγt-LBD/GAL4-DBD constructs. After 24 h post-transfection, cells were incubated with Cpd A for an additional 24 h before luciferase activity was determined using an EnVision Multilabel Plate Reader (Perkin Elmer).

RORγt expression = RORγt expression in cultures (data not shown); type: cell-based; settings: preliminary evidence
total human CD4+ T-cells = test: Th17 polarization of total CD4+ T-cells, cytokine ELISA; type: cell-based; settings: for IL-17 concentration in Th17 cell supernatants: 72 h
Procedure: (§2) Total, naive and memory CD4^+ T cells were isolated from Peripheral blood mononuclear cells (PBMCs) from healthy volunteers by density gradient centrifugation using Ficoll Paque (GE). Total, naive or memory CD4^+ T-cells were prepared by immunomagnetic separation using the respective CD4^+ T-cell enrichment kits resulting in untouched highly purified subsets (EasySep™, Stem Cell). Purity was assessed by flow cytometry and was between 95 and 98% for the total CD4^+ T-cells. The purity of naive (CD45RA^+CD45RO^−) and memory (CD45RA^−CD45RO^+) CD4^+T-cells ranged between 95 and 98%, respectively. For T-cell stimulation experiments, cells were treated as previously published ([44]). Briefly, T-cells were stimulated with plate-bound monoclonal antibodies against CD3 (1 μg/ml, clone OKT-3, BioXcell) and CD28 (1 μg/ml, clone CD28.2, BioLegend). For Th17 polarization assays, IL-6 (20 ng/ml), TGF-β1 (5 ng/ml), IL-1β (10 ng/ml), and IL-23 (10 ng/ml) were added. For Th1 polarization assays, IL-12 (10 ng/ml) and anti-IL-4 antibody (5 μg/ml), for Th2 polarizations, IL-4 (10 ng/ml) and anti-IFN-γ antibody (5 μg/ml) were added. For Th0 polarization assays, cells were only stimulated with CD3 and CD28 antibodies. Supernatants were collected after 3 or 7 days of incubation for total or naive/memory CD4^+ T-cell polarizations, respectively. Cytokine concentrations were quantified by ELISA according to the manufacturer's instructions (eBioscience or BioLegend).

RORβ = test system: T2, RORβ; test: RORβ LBD-GAL4 reporter gene assay in Jurkat cells; type: cell-based, human
T2 construct: RORα and RORβ we performed LBD-GAL4 reporter gene assays; expressed in transfected cells; host or cells: Jurkat cells stably carrying pGL4.35
Procedure: as §1

[2] = test system: memory human CD4+ T-cells; test: Th17 polarization of memory CD4+ T-cells, IL-17A ELISA; type: cell-based; settings: T-cell, 168 h, Th17 differentiation 7 days, read-out: IC50, IL-17A secretion
Procedure: as §2, with “Supernatants were collected after 3 or 7 days of incubation for total or naive/memory CD4^+ T-cell polarizations, respectively.” left out

full-length RORγt = target: T3, full-length RORγt (Homo sapiens, UniProt P51449); test: 4 x RORE luciferase reporter assay in HUT78 T-cells expressing full-length RORγt; type: cell-based; settings: CD3 antibody plus PMA, 48 h, read-out: IC50, 4 x RORE-driven luciferase activity
T3 construct: HUT78 T-cells stably expressing full-length eGFP-RORγt; eGFP; expressed in transfected cells
T3 sequence (P51449 1-497 isoform P51449-2): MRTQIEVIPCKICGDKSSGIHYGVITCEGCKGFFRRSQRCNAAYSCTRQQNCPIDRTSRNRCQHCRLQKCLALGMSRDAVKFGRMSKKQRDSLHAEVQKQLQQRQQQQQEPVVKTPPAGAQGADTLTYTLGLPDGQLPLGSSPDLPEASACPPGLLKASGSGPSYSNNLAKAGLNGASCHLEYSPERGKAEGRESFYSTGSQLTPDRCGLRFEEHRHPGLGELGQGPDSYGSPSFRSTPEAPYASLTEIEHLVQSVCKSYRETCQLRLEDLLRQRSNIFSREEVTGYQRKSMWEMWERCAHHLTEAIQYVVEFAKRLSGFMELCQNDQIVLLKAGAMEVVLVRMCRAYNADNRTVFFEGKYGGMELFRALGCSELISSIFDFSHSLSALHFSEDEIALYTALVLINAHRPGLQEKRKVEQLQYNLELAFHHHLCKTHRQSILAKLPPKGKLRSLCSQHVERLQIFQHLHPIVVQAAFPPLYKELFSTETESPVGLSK
From the text: HUT78 T-cells stably expressing full-length eGFP-RORγt or eGFP-empty vector were generated as described before ([45]). Cells were transfected with plasmids containing 4 × ROREs inserted into the pGL4.17 luciferase Firefly reporter plasmid (kindly provided by Dr. Juergen Reinhardt, Novartis). As a control construct, a mutated or a non-functional form of 4 × RORE (Mut-RORE), was transfected in eGFP-RORγt HUT78 T-cells. The plasmids contained the following sequences where the bold nucleotides represent the putative RORγt binding site or the mutated form of the RORE:
Two days after transfection, cells were incubated in X-vivo 15 medium containing 10% FCS and 700 μg/ml Geneticin (Corning) and stable clones expressing the 4 × ROREs or mutated-ROREs were obtained by limiting dilution. The luciferase expression of the individual cell clones was measured using Luciferase detection buffer (Perkin Elmer) and the RORC mRNA expression of the selected clones were quantified by qRT-PCR. […]

## Cc1ccc(C(=O)Nc2cn3ccnc3c(CN3CCN(c4noc(C(C)(C)C)n4)[C@@H](C)C3)c2C)cn1 [Cpd A, (S)-N-(8-((4-(5-(tert-butyl)-1,2,4-oxadiazol-3-yl)-3-methylpiperazin-1-yl)methyl)-7-methylimidazo[1,2-a]pyridin-6-yl)-6-methylnicotinamide]
[1]
  IL-21-induced STAT3 phosphorylation (pY705): did not affect
RORα
  activity toward RORα (LBD-GAL4 reporter): lacked activity
RORγt expression
  RORγt expression in cultures: did not modify
Total human CD4+ T-cells; 0.13 nM (pharmacologically inactive concentration)
  IL-17 concentration in Th17 cell supernatants: 600 pg/mL
Total human CD4+ T-cells; 10 μM (active concentration)
  IL-17 concentration in Th17 cell supernatants: 150 pg/mL
Total human CD4+ T-cells; Homo sapiens, T-cell, total CD4+ T-cells, Th17 polarization 72 h, ELISA, read-out: IC50, IL-17A secretion
  IC50: 39 nM
Total human CD4+ T-cells; similar at low or high compound concentrations
  TNF-α concentration in Th17 cell supernatants: 4 ng/mL
RORβ
  activity toward RORβ (LBD-GAL4 reporter): lacked activity
[2]
  IC50: 27 nM
full-length RORγt
  IC50: 64 nM
